The values that follow are results of earlier work, collected in patent US20060199791A1, “Anti-microbial composition comprising a metal ion chelating agent” (AQ+ PLC, priority 2001, published 2006).

This series has as its system long term sinus infection. Particulars: patient history, infection for some 14 to 15 years.

Regarding `O=C(O)c1cn(C2CC2)c2cc(N3CCNCC3)c(F)cc2c1=O` [Cipro], the “response of the sinus infection to earlier antibiotic treatment” value (from here on “response of the sinus infection”) is recorded as “resistant to treatment”.

As to `CCC[C@@H]1C[C@@H](C(=O)N[C@@H]([C@H]2O[C@H](SC)[C@H](O)[C@@H](O)[C@H]2O)[C@H](C)Cl)N(C)C1` [Clindramycin], the “response of the sinus infection” value is listed as “resistant to treatment”.

As to `CC1(C)S[C@@H]2[C@H](NC(=O)[C@H](N)c3ccc(O)cc3)C(=O)N2[C@H]1C(=O)O` [Trimox], the “response of the sinus infection” value is given as “resistant to treatment”.

With `CC1(C)S[C@@H]2[C@H](NC(=O)COc3ccccc3)C(=O)N2[C@H]1C(=O)O` [Veetids], the “response of the sinus infection” value is recorded as “resistant to treatment”.
